Source: patent US9243247B2, “Composition for promoting apoptosis or inhibiting cell growth, comprising epstein-barr virus microrna” (Catholic University Industry Academic Cooperation Foundation, priority 2011, dated 2016)

Tests used:
AGS cell strain [1] = assay: Effect on cell cycle (propidium iodide staining, FACS, sub G1); type: cell-based; details: for Relative Sub G1: mimic 10 nM, 10 uM 5-FU 24 h after transfection, then 48 hours, relative to scrambled control (=1)
How it was run: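 AGS gastric cells (EBV-negative), 2×10^5 per well, were transfected with synthetic miRNA (10 nM). DNA was stained with propidium iodide, and the cell-cycle-altered fraction was measured by FACS.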

AGS cell strain [2] = assay: Measurement of apoptosis (Annexin V staining, FACS); type: cell-based; details: for Relative Apoptotic cell: mimic 10 nM, 10 uM 5-FU 24 h after transfection, then 48 hours, Annexin V, relative to scrambled control (=1), n=9
How it was run: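 EBV-negative AGS cells (2×10^5/well) were transfected with 10 nM synthetic miRNA. Twenty-four hours later they received 10 uM 5-FU for 48 h at 37 °C. The apoptotic cell ratio was measured by PE Annexin V staining and FACS.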

[3] = AGS, mimic 10 nM in combination with 10 uM 5-FU

## BART15-3p: EBV BART miRNA mimic, double stranded RNA; sense SEQ NO: 15, antisense SEQ NO: 16 (sense GUCAGUGGUUUUGUUUCCUUGA; antisense UCAAGGAAACAAAACCACUGAC; chemistry not given here)
AGS cell strain [1]; mimic 10 nM plus 10 uM 5-FU (Example 6)
  ratio of sub G1 after the 5-FU treatment: greatly increased
AGS cell strain [1]; mimic 10 nM transfected alone, versus scrambled control
  percentage of sub G1: significantly higher
AGS cell strain [1]
  Relative Sub G1: 2.508
AGS cell strain [1]; listed as 15-3p
  Relative Sub G1: increased
AGS cell strain [2]; [3]
  ratio of early apoptotic cell: increased
  ratio of late apoptotic cell: increased
AGS cell strain [2]; AGS, mimic 10 nM plus 10 uM 5-FU
  degree of apoptosis, combination with 5-FU versus sum of single treatments: synergetic effect
AGS cell strain [2]; AGS, mimic 10 nM treated alone
  ratio of early apoptotic cell: increased
  ratio of late apoptotic cell: increased
AGS cell strain [2]; AGS
  Relative Apoptotic cell: 1.665
AGS cell strain [2]; AGS, listed as 15-3p
  Relative Apoptotic cell: significantly higher
AGS cell strain [2]; mimics transfected to AGS, tumor cell strain not infected with EBV
  effect on cell growth and apoptosis (summary statement): inhibit cell growth and promote apoptosis
